{"source": "patent US7667054B2", "about": "“Cytotoxic agents comprising new taxanes” (priority 2004, dated 2010)", "molecules": {"B1": {"name": "huC242-taxoid (conjugate, chains of the INN, looked up)", "VH": "QVQLVQSGAEVKKPGETVKISCKASDYTFTYYGMNWVKQAPGQGLKWMGWIDTTTGEPTYAQKFQGRIAFSLETSASTAYLQIKSLKSEDTATYFCARRGPYNWYFDVWGQGTTVTVSS", "VL": "DIVMTQSPLSVPVTPGEPVSISCRSSKSLLHSNGNTYLYWFLQRPGQSPQLLIYRMSNLVSGVPDRFSGSGSGTAFTLRISRVEAEDVGVYYCLQHLEYPFTFGPGTKLELK", "modifications": "taxoid payload conjugate"}}, "key": {"A549": {"system": "A549", "experiment": "activity of the taxoids on A549 (procedure of Riou, Naudin and Lavelle)", "format": "cell-based", "settings": "Homo sapiens, A549, read-out: A549", "description": "(§1) The activity of the compounds of the present invention were determined following the proceeding described by Riou, Naudin and Lavelle in Biochemical and Biophysical Research Communications; Vol. 187, No1, 1992, p 164-170."}, "MCF7": {"system": "MCF7", "experiment": "activity of the taxoids on MCF7 (procedure of Riou, Naudin and Lavelle)", "format": "cell-based", "settings": "Homo sapiens, MCF7, read-out: MCF7", "description": "as §1"}, "COLO 205 cells": {"system": "COLO 205 cells", "experiment": "in vitro potency of huC242-Taxoid conjugate and free taxoid, WST-8 assay, antigen positive cells", "format": "cell-based", "settings": "human colon cancer COLO 205 cells (antigen positive), 4 days", "description": "(§2) Samples of free taxoid or huC242-Taxoid conjugate were added to a 96-well flat bottomed tissue culture plate and titrated using serial dilutions ranging from 1×10^−12 M to 3×10^−7 M. Human colon tumor cells, COLO 205, or human melanoma cells, A-375, were added to the wells in such a way that there were triplicate samples for each drug concentration for each cell line. The plates were incubated at 37° C. in an atmosphere of 5% CO2 for 4 days.\n(§3) At the end of the incubation period, 20 μl of the tetrazolium reagent WST-8 (2-(2-methoxy-nitrophenyl)-3-(4-nitrophenyl)-5-(2,4-disulfophenyl)-2-tetrazolium, monosodium salt]) was added to each well, and the plates were returned to the incubator for 2 hours. The absorbance in each well of the plates was then measured using the Molecular Devices plate reader at 450 nm. Surviving fraction of cells at each concentration of taxoid or conjugate are plotted in FIGS. 2a, b."}, "A-375 cells": {"system": "A-375 cells", "experiment": "in vitro potency of huC242-Taxoid conjugate and free taxoid, WST-8 assay, antigen negative cells", "format": "cell-based, human", "settings": "for IC50: human melanoma A-375 cells (antigen negative), 4 days, WST-8", "description": "as §2, §3"}}}
{"molecule": "COc1ccc(OC)c(C(=O)O[C@H]2[C@@H]3[C@]4(OC(C)=O)CO[C@@H]4C[C@H]4O[C@@H]([C@H](OC(=O)N(C)C)C5=C(C)[C@@H](OC(=O)[C@H](O)[C@H](C=C(C)C)NC(=O)OC(C)(C)C)C[C@]2(O)C5(C)C)[C@@]34C)c1", "note": "[IGT-15-014]", "values": [{"measurement": "IC50", "setting": "A549", "value": 0.03, "unit": "nM"}, {"measurement": "IC50", "setting": "MCF7", "value": 0.024, "unit": "nM"}]}
{"molecule": "COc1ccc(OC)c(C(=O)O[C@H]2[C@@H]3[C@]4(OC(C)=O)CO[C@@H]4C[C@H]4O[C@@H]([C@H](OC(=O)NCC(C)(C)SSC)C5=C(C)[C@@H](OC(=O)[C@H](O)[C@@H](NC(=O)OC(C)(C)C)c6ccco6)C[C@]2(O)C5(C)C)[C@@]34C)c1", "note": "[IGT-15-075, 7α,9α-epoxy-3′-dephenyl-3′-(2-furyl)-2-debenzoyl-2-(2,5-dimethoxybenzoyl)-10-(N-2,2-dimethyl-2-methyidithio-ethylcarbamoyl)-docetaxel]", "values": [{"measurement": "IC50", "setting": "COLO 205 cells; 96 h", "value": "~0.1", "unit": "nM"}, {"measurement": "IC50", "setting": "A-375 cells; 96 h", "value": "~0.1", "unit": "nM"}]}
{"molecule": "B1", "values": [{"measurement": "IC50", "setting": "COLO 205 cells", "value": 0.08, "unit": "nM"}, {"measurement": "fold less sensitive, antigen negative cells vs COLO 205", "setting": "A-375 cells; A-375 versus COLO 205", "value": "about 150 fold"}, {"measurement": "IC50", "setting": "A-375 cells", "value": 12, "unit": "nM"}]}
